Data as given in ChEMBL document CHEMBL1140261, “Novel 1-[2-(diarylmethoxy)ethyl]-2-methyl-5-nitroimidazoles as HIV-1 non-nucleoside reverse transcriptase inhibitors. A structure-activity relationship investigation” (J Med Chem, 2005).

Experiments:
MT4 [1] = assay: (§1) Selective index as the ratio of CC50 and EC50; format: functional
MT4 [2] = assay: Concentration required to reduce the viability of mock-infected cells by 50%; determined by MTT method.; format: functional; details: Homo sapiens
MT4 [3] = assay: Concentration required to protect MT-4 cells from HIV-1 induced cytopathogenicity by 50%; determined by MTT method; format: functional, cell-based; details: Homo sapiens
[4] = tested on: Human immunodeficiency virus type 1 reverse transcriptase (Human immunodeficiency virus 1), Q72547 [K103N]
[5] = tested on: Human immunodeficiency virus type 1 reverse transcriptase (Human immunodeficiency virus 1), Q72547 [R221A]
Description: Dose required to inhibit HIV-1 reverse transcriptase activity (Y188L mutant) by 50%

[6] = tested on: Human immunodeficiency virus type 1 reverse transcriptase (Human immunodeficiency virus 1), Q72547 [V179D]
Description: Dose required to inhibit HIV-1 reverse transcriptase activity (V179D mutant) by 50%

[7] = biological target: Human immunodeficiency virus type 1 reverse transcriptase (Human immunodeficiency virus 1) (UniProt Q72547)
Description: Dose required to inhibit HIV-1 reverse transcriptase activity (wild-type) by 50%

[8] = tested on: Human immunodeficiency virus type 1 reverse transcriptase (Human immunodeficiency virus 1), Q72547 [Y181I]
[9] = tested on: Human immunodeficiency virus type 1 reverse transcriptase (Human immunodeficiency virus 1), Q72547 [L100I]
Description: Dose required to inhibit HIV-1 reverse transcriptase activity ( L100I mutant) by 50%

[10] = tested on: Human immunodeficiency virus type 1 reverse transcriptase (Human immunodeficiency virus 1), Q72547 [K103N]; assay: Dose required to inhibit HIV-1 reverse transcriptase activity (K103N mutant) by 50%
[11] = tested on: Human immunodeficiency virus type 1 reverse transcriptase (Human immunodeficiency virus 1), Q72547 [L100I]; assay: Dose required to inhibit HIV-1 reverse transcriptase activity (L100I mutant) by 50%
[12] = biological target: T1, Human immunodeficiency virus type 1 reverse transcriptase (Human immunodeficiency virus 1, UniProt Q72547); assay: Concentration required to inhibit HIV-1 reverse transcriptase activity (wild-type) by 50%; format: functional
MT4 [13] = assay: as §1; format: functional, Human immunodeficiency virus 1
[14] = biological target: T1, Human immunodeficiency virus type 1 reverse transcriptase; assay: Concentration required to inhibit HIV-1 reverse transcriptase activity (wild-type) enzyme
[15] = biological target: T1, Human immunodeficiency virus type 1 reverse transcriptase; assay: Concentration required to inhibit HIV-1 reverse transcriptase activity of wild-type enzyme; format: functional
[16] = biological target: Human immunodeficiency virus type 1 reverse transcriptase (Human immunodeficiency virus 1) (UniProt Q72547); assay: Dose required to inhibit HIV-1 reverse transcriptase activity of wild-type enzyme by 50%

Cc1ncc([N+](=O)[O-])n1CCNC(c1ccccc1)c1cccc(F)c1 (stereo unspecified)
SI (MT4 [1]): >55.6
CC50 (MT4 [2]): > 100 µM
EC50 (MT4 [3]): 1.8 µM

Cc1ccnc2c1NC(=O)c1cccnc1N2C1CC1
ID50 [4]: 7 µM
ID50 [5]: 18 µM
ID50 [6]: 0.3 µM
ID50 [7]: 0.4 µM
ID50 [8]: 36 µM
ID50 [9]: 9 µM

Cc1ncc([N+](=O)[O-])n1CCNCc1ccccc1
CC50 (MT4 [2]): > 100 µM
EC50 (MT4 [3]): > 100 µM

Cc1ncc([N+](=O)[O-])n1CCOC(c1cccc(Cl)c1)c1cccs1 (stereo unspecified)
ID50 [10]: 5.1 µM
ID50 [5]: 15.1 µM
SI (MT4 [1]): 900
ID50 [6]: 10.8 µM
ID50 [7]: 1.17 µM
CC50 (MT4 [2]): 72 µM
ID50 [8]: 6.25 µM
ID50 [11]: 3.2 µM
EC50 (MT4 [3]): 0.08 µM

O=[N+]([O-])c1cncn1CCOC(c1ccccc1)c1ccccc1
CC50 (MT4 [2]): > 100 µM
EC50 (MT4 [3]): > 100 µM

Cc1ncc([N+](=O)[O-])n1CCS(=O)(=O)C(c1ccccc1)c1ccccc1
SI (MT4 [1]): >19.3
CC50 (MT4 [2]): > 100 µM
EC50 (MT4 [3]): 5.2 µM

Cc1ncc([N+](=O)[O-])n1CCOC(c1ccccc1)c1ccccc1
SI (MT4 [1]): >500
CC50 (MT4 [2]): > 100 µM

Cc1ncc([N+](=O)[O-])n1CCNC(c1ccccc1)c1cccc(Cl)c1 (stereo unspecified)
SI (MT4 [1]): >47.6
CC50 (MT4 [2]): > 100 µM
EC50 (MT4 [3]): 2.1 µM

Cc1ncc([N+](=O)[O-])n1CCSCc1ccccc1
SI (MT4 [1]): >1.7
CC50 (MT4 [2]): > 100 µM
EC50 (MT4 [3]): 60 µM

Cc1ncc([N+](=O)[O-])n1CCOC(c1ccccc1)C1CCCCC1 (stereo unspecified)
SI (MT4 [1]): >333.3
CC50 (MT4 [2]): > 100 µM
EC50 (MT4 [3]): 0.3 µM

Cc1ncc([N+](=O)[O-])n1CCN(Cc1ccccc1)C1CCCCC1
SI (MT4 [1]): >1.2
CC50 (MT4 [2]): > 100 µM
EC50 (MT4 [3]): 84 µM

Cc1ncc([N+](=O)[O-])n1CCSC(c1ccccc1)c1cccc(F)c1 (stereo unspecified)
SI (MT4 [1]): >1.2
CC50 (MT4 [2]): > 100 µM
EC50 (MT4 [3]): 80 µM

Cc1ncc([N+](=O)[O-])n1CCNC(c1ccccc1)c1ccccc1
SI (MT4 [1]): >8.3
ID50 [7]: 16.5 µM
EC50 [12]: 8 µM
CC50 (MT4 [2]): > 100 µM
EC50 (MT4 [3]): 12 µM

Cc1ncc([N+](=O)[O-])n1CCOC(c1ccccc1)c1ccc(Cl)s1 (stereo unspecified)
SI (MT4 [1]): 8.33
CC50 (MT4 [2]): > 100 µM
EC50 (MT4 [3]): 1.2 µM

Cc1ncc([N+](=O)[O-])n1CCOC(c1cccs1)c1ccccc1Cl (stereo unspecified)
SI (MT4 [1]): >52.6
CC50 (MT4 [2]): > 100 µM
EC50 (MT4 [3]): 1.9 µM

Cc1ncc([N+](=O)[O-])n1CCNC(c1ccccc1)c1ccccc1F (stereo unspecified)
SI (MT4 [1]): >2
CC50 (MT4 [2]): > 100 µM
EC50 (MT4 [3]): 50 µM

Cc1ccccc1C(OCCn1c([N+](=O)[O-])cnc1C)c1cccs1 (stereo unspecified)
SI (MT4 [1]): 204
CC50 (MT4 [2]): 92 µM
EC50 (MT4 [3]): 0.45 µM

Cc1nc([N+](=O)[O-])cn1CCOCc1ccccc1
SI (MT4 [1]): >4.5
CC50 (MT4 [2]): > 100 µM
EC50 (MT4 [3]): 22 µM

Cc1ncc([N+](=O)[O-])n1CCOC(c1cccs1)c1ccccc1F (stereo unspecified)
SI (MT4 [1]): >833
CC50 (MT4 [2]): > 100 µM
EC50 (MT4 [3]): 0.12 µM

Cc1ncc([N+](=O)[O-])n1CCSC(c1ccccc1)c1cccc(Cl)c1 (stereo unspecified)
SI (MT4 [1]): >1.6
CC50 (MT4 [2]): > 100 µM
EC50 (MT4 [3]): 64 µM

Cc1cccc(C(NCCn2c([N+](=O)[O-])cnc2C)c2ccccc2)c1 (stereo unspecified)
SI (MT4 [1]): >1.5
CC50 (MT4 [2]): > 100 µM
EC50 (MT4 [3]): 65 µM

Cc1ncc([N+](=O)[O-])n1CCOC(c1ccccc1)c1ccc2ccccc2c1 (stereo unspecified)
CC50 (MT4 [2]): > 100 µM
EC50 (MT4 [3]): > 100 µM

Cc1nc([N+](=O)[O-])cn1CCOC(c1ccccc1)c1ccccc1
SI (MT4 [1]): >1.5
CC50 (MT4 [2]): > 100 µM
EC50 (MT4 [3]): 67 µM

Cc1ncc([N+](=O)[O-])n1CCOC(c1ccccc1)c1cccs1 (stereo unspecified)
ID50 [4]: 8.25 µM
SI (MT4 [13]): >3333
ID50 [5]: 30.2 µM
ID50 [6]: 1.9 µM
ID50 [7]: 0.37 µM
CC50 (MT4 [2]): > 100 µM
ID50 [8]: > 50 µM
ID50 [9]: 5.5 µM
EC50 (MT4 [3]): 0.03 µM
EC50 [14]: 0.03 µM

Cc1ncc([N+](=O)[O-])n1CCNC(c1ccccc1)c1ccc(F)cc1 (stereo unspecified)
SI (MT4 [1]): >1.1
CC50 (MT4 [2]): > 100 µM
EC50 (MT4 [3]): 92 µM

Cc1ncc([N+](=O)[O-])n1CCOC(c1cccc(F)c1)c1cccs1 (stereo unspecified)
SI (MT4 [1]): >714
CC50 (MT4 [2]): > 100 µM
EC50 (MT4 [3]): 0.14 µM

Cc1ncc([N+](=O)[O-])n1CCSC(c1ccccc1)c1ccccc1Cl (stereo unspecified)
SI (MT4 [1]): >8.3
CC50 (MT4 [2]): > 100 µM
EC50 (MT4 [3]): 12 µM

Cc1ncc([N+](=O)[O-])n1CCSC(c1ccccc1)c1ccccc1
SI (MT4 [1]): >83.5
CC50 (MT4 [2]): > 100 µM
EC50 (MT4 [3]): 1.2 µM
EC50 [15]: 2.3 µM
ID50 [16]: 10.6%

Cc1ccc(C(NCCn2c([N+](=O)[O-])cnc2C)c2ccccc2)cc1 (stereo unspecified)
SI (MT4 [1]): >2.3
CC50 (MT4 [2]): > 100 µM
EC50 (MT4 [3]): 44 µM

Cc1ncc([N+](=O)[O-])n1CCOC(c1cccs1)c1cccc(F)c1F (stereo unspecified)
SI (MT4 [1]): >1667
CC50 (MT4 [2]): > 100 µM
EC50 (MT4 [3]): 0.06 µM

Cc1ncc([N+](=O)[O-])n1CCOCc1ccccc1
SI (MT4 [1]): >2.38
CC50 (MT4 [2]): > 100 µM
EC50 (MT4 [3]): 4.2 µM

O=[N+]([O-])c1cn(CCOC(c2ccccc2)c2ccccc2)cn1
SI (MT4 [1]): >1.3
CC50 (MT4 [2]): > 100 µM
EC50 (MT4 [3]): 78 µM

Cc1ncc([N+](=O)[O-])n1CCNC(c1ccccc1)c1ccccc1Cl (stereo unspecified)
SI (MT4 [1]): >1.1
CC50 (MT4 [2]): > 100 µM
EC50 (MT4 [3]): 90 µM

Cc1ncc([N+](=O)[O-])n1CCOC(c1ccc(F)cc1)c1cccs1 (stereo unspecified)
SI (MT4 [1]): >32.3
CC50 (MT4 [2]): > 100 µM
EC50 (MT4 [3]): 3.1 µM

Cc1ncc([N+](=O)[O-])n1CCOC(c1ccc(Cl)cc1)c1cccs1 (stereo unspecified)
SI (MT4 [1]): >1.7
CC50 (MT4 [2]): > 100 µM
EC50 (MT4 [3]): 58 µM

Cc1cccc(C(SCCn2c([N+](=O)[O-])cnc2C)c2ccccc2)c1 (stereo unspecified)
SI (MT4 [1]): >33.3
CC50 (MT4 [2]): > 100 µM
EC50 (MT4 [3]): 3 µM

Cc1ccc(C(OCCn2c([N+](=O)[O-])cnc2C)c2cccs2)cc1 (stereo unspecified)
SI (MT4 [1]): >3333
CC50 (MT4 [2]): > 100 µM
EC50 (MT4 [3]): 0.3 µM

Cc1ncc([N+](=O)[O-])n1CCOC(c1ccccc1)c1ccco1 (stereo unspecified)
SI (MT4 [1]): >840
CC50 (MT4 [2]): > 100 µM
EC50 (MT4 [3]): 0.1 µM

Cc1ncc([N+](=O)[O-])n1CCOC(c1ccccc1)c1cccnc1 (stereo unspecified)
SI (MT4 [1]): >1250
CC50 (MT4 [2]): > 100 µM
EC50 (MT4 [3]): 0.08 µM

Cc1ncc([N+](=O)[O-])n1CCSC(c1ccccc1)c1ccccc1F (stereo unspecified)
SI (MT4 [1]): >20
CC50 (MT4 [2]): > 100 µM
EC50 (MT4 [3]): 5 µM
